Here are results for 30 compounds from ChEMBL document CHEMBL1177659, “Structure-based virtual screening, synthesis and SAR of novel inhibitors of hepatitis C virus NS5B polymerase” (Bioorg Med Chem, 2010).

Molecules are shown by their SMILES.

The first experiment relates to Hepacivirus hominis. The experiment can be described thus: Inhibition of His-tagged recombinant NS5B Cdelta 21 polymerase expressed in Escherichia coli DH5alpha at 250 uM by standard primer dependent elongation assay relative to control.
As for `O=c1oc2ccccc2c2c1ncn2-c1ccccc1`, the inhibition (as a rule, the change of the read-out against control, counted positive when it falls) was determined as 62.5%.

Consider `O=C(O)CN1C(=O)/C(=C/c2ccc(C(F)(F)F)cc2)SC1=S`, for which the inhibition is 71%.

As to `O=C(O)c1ccc2c(c1)C(=O)N(c1cccc(O)c1)C2=O`, the inhibition is 55%.

`N#Cc1nc(-c2ccccc2)c(-c2ccccc2)nc1C#N`: the inhibition is 48.6%.

Test system in the next experiment: not listed separately
Nature of the experiment: Inhibition of His-tagged recombinant NS5B Cdelta 21 polymerase expressed in Escherichia coli DH5alpha by standard primer dependent elongation assay. On the set-up: species or system Hepacivirus hominis.
On to `O=C(O)CN1C(=O)/C(=C/c2cccc(Br)c2)SC1=S`, for which the IC50 (in general, the midpoint of a concentration-inhibition curve) worked out at 20.2 µM.

Turning to `O=C(O)CN1C(=O)/C(=C/c2cccc(Cl)c2)SC1=S`, the IC50 worked out at 18.4 µM.

Regarding `CC(C(=O)O)N1C(=O)/C(=C/c2ccc(Cl)cc2Cl)SC1=S` (centres undefined), the IC50 was 13.3 µM.

For the compound `O=c1oc2ccccc2c2c1ncn2-c1ccccc1`, the IC50 is 60.2 µM.

For the compound `O=C1/C(=C/c2ccc(Cl)c(Cl)c2)SC(=S)N1NS(=O)(=O)c1ccccc1`, the half-maximal inhibitory concentration (IC50) came out at 0.2 µM.

For `CC(C)C(C(=O)O)N1C(=O)/C(=C/c2cccc3ccccc23)SC1=S` (centres undefined), the half-maximal inhibitory concentration (IC50) was 16.9 µM.

For `CC(C)C(C(=O)O)N1C(=O)/C(=C/c2ccc(F)cc2)SC1=S` (centres undefined), the IC50 was found to be 42.9 µM.

Turning to `O=C(O)CN1C(=O)/C(=C/c2ccc(Cl)cc2Cl)SC1=S`, the IC50 is 17.9 µM.

On to `O=C(O)CN1C(=O)/C(=C/c2ccc([N+](=O)[O-])cc2)SC1=S`, for which the half-maximal inhibitory concentration (IC50) stood at 21.9 µM.

Turning to `O=C(O)CN1C(=O)/C(=C/c2ccccc2[N+](=O)[O-])SC1=S`, the IC50 was 16.2 µM.

`O=C(O)CCCN1C(=O)/C(=C/c2ccc(Cl)cc2Cl)SC1=S`: the IC50 was 58 µM.

For the compound `O=C(O)CCCCCN1C(=O)/C(=C/c2ccc(Cl)cc2Cl)SC1=S`, the IC50 was determined as 16.1 µM.

As to `CC(C)C(C(=O)O)N1C(=O)/C(=C/c2ccccc2Cl)SC1=S` (centres undefined), the concentration for half-maximal inhibition (IC50) is 36.1 µM.

Consider `CC(C)C(C(=O)O)N1C(=O)/C(=C/c2ccc(Cl)cc2Cl)SC1=S` (centres undefined), for which the concentration for half-maximal inhibition (IC50) stood at 14.1 µM.

As for `CC(C)CC(C(=O)O)N1C(=O)/C(=C/c2ccc(Cl)cc2Cl)SC1=S` (centres undefined), the IC50 worked out at 18.9 µM.

For `O=C(O)CN1C(=O)/C(=C/c2ccc(Cl)c(Cl)c2)SC1=S`, the concentration for half-maximal inhibition (IC50) was 8.4 µM.

Consider `CCc1ccc(/C=C2\SC(N[C@@H](C(=O)O)c3ccc(F)cc3)=NC2=O)o1` (stereo in doubt) [VALEANT], for which the IC50 came to 3 µM.

For the compound `O=C(O)C(Cc1ccccc1)N1C(=O)/C(=C/c2ccc(Cl)cc2Cl)SC1=S` (centres undefined), the IC50 came out at 10.6 µM.

For `CCCC(C(=O)O)N1C(=O)/C(=C/c2ccc(Cl)cc2Cl)SC1=S` (centres undefined), the half-inhibitory concentration (IC50) turned out to be 28.2 µM.

As for `CC(C(=O)O)N1C(=O)/C(=C/c2cccc3ccccc23)SC1=S` (centres undefined), the IC50 amounted to 68.1 µM.

With `O=C(O)CN1C(=O)/C(=C/c2cccc(Oc3ccccc3)c2)SC1=S`, the half-inhibitory concentration (IC50) amounted to 7.7 µM.

On to `O=C(O)CN1C(=O)/C(=C/c2cccc(C(F)(F)F)c2)SC1=S`, for which the IC50 was 50.9 µM.

As to `O=C(O)CN1C(=O)/C(=C/c2ccc(C(F)(F)F)cc2)SC1=S`, the 50% inhibitory concentration (IC50) worked out at 55.2 µM.

Regarding `CSCCC(C(=O)O)N1C(=O)/C(=C/c2ccc(Cl)cc2Cl)SC1=S` (centres undefined), the IC50 came out at 29.2 µM.

On to `O=C(O)c1ccc2c(c1)C(=O)N(c1cccc(O)c1)C2=O`, for which the half-inhibitory concentration (IC50) turned out to be 200 µM.

As to `O=C(O)CCN1C(=O)/C(=C/c2ccc(Cl)cc2Cl)SC1=S`, the IC50 was determined as 19.9 µM.

Regarding `O=C(O)CN1C(=O)/C(=C/c2cccc3ccccc23)SC1=S`, the IC50 was determined as 61.4 µM.

As for `O=C(O)CN1C(=O)/C(=C/c2ccc(F)cc2)SC1=S`, the IC50 was found to be 42.1 µM.

In the case of `O=C1/C(=C/c2ccc(Cl)cc2Cl)SC(=S)N1CCS(=O)(=O)O`, the half-inhibitory concentration (IC50) was determined as 23.5 µM.

In the case of `N#Cc1nc(-c2ccccc2)c(-c2ccccc2)nc1C#N`, the 50% inhibitory concentration (IC50) was found to be 250 µM.
